Here are results for 24 molecules from US12441736B2, “KIF18A inhibitors” (AMGEN INC., priority 2018, dated 2025).

In general, IC50 refers to the concentration at which inhibition is half-maximal.

The target of this assay is T1, Recombinant human KIF18A (1-467 His-tagged) protein (Homo sapiens, UniProt Q8NI77).
T1 construct: Recombinant human KIF18A (1-467 His-tagged) protein; His; made in house
T1 sequence (Q8NI77 1-467): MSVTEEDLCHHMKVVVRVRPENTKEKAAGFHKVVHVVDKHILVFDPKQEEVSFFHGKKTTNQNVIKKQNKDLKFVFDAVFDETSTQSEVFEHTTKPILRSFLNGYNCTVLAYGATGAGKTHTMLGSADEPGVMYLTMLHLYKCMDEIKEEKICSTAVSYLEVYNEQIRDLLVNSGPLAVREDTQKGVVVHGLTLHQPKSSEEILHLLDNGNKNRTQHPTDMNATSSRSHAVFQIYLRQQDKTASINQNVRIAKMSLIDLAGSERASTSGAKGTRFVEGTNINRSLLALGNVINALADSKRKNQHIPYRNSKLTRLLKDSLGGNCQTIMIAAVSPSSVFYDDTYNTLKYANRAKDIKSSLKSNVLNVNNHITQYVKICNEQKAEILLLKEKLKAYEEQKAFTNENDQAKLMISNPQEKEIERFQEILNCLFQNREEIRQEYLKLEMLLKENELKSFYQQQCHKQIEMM
T1 sequence (P02550 whole entry partner): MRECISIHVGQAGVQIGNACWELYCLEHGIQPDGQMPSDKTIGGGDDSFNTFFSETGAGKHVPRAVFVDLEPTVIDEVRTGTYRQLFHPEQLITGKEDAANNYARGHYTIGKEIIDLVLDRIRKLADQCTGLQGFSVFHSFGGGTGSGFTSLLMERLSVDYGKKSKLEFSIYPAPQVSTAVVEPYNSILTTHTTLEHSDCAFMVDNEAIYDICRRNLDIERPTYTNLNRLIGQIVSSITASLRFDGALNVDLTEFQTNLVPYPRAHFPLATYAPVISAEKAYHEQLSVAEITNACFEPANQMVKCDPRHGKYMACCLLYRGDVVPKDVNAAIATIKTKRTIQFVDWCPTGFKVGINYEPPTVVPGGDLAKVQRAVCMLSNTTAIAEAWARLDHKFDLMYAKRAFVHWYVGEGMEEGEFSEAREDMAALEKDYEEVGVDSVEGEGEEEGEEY
T1 sequence (P02554 whole entry partner): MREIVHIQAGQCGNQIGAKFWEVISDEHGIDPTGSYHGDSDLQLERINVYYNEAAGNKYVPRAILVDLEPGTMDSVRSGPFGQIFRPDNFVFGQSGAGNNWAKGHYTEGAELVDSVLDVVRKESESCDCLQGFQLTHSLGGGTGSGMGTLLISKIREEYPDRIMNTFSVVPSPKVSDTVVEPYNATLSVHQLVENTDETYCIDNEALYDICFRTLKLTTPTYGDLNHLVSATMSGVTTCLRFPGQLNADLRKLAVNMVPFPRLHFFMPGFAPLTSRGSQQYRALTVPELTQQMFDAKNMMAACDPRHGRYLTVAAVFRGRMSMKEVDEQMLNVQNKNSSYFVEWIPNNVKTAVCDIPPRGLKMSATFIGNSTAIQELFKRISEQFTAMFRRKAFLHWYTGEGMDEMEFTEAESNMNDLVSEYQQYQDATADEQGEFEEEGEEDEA
The assay is described as follows: KIF18A Enzyme Assay: microtubule-stimulated ATPase activity (ADP-Glo). Conditions: 30 nM KIF18A, 30 μg/mL pig microtubules, 75 μM ATP, ADP-Glo luminescence. It counts as biochemical. The source says:
KIF18A Enzyme Assay: Microtubule-stimulated ATPase activity assay is used to measure KIF18A enzyme activity after treatment with compound. Compounds were 2-fold serially diluted in DMSO (Sigma Inc) over 22-point concentration range. Recombinant human KIF18A (1-467 His-tagged) protein was expressed using a baculovirus system and purified by affinity chromatography by Amgen Inc. Concentrations of KIF18A protein, microtubules (MT), and ATP in the reaction were optimized for standardized homogenous enzyme assay using ADP-Glo™ Kinase/ATPase Assay Kit (Promega Inc). The assay measures ADP formed from the ATPase reaction. Prepare reaction buffer [(15 mM Tris, pH 7.5 (Teknova Inc), 10 mM MgCl2 (IT Baker Inc), 0.01% Pluronic F-68 (Life Technologies Inc), 1 μM Taxol (Cytoskeleton Inc), and 30 μg/mL pig microtubules (Cytoskeleton Inc)]. Add compound and KIF18A protein (30 nM) to prepared reaction buffer and incubated for 15 minutes at room temperature, next add ATP (at Kin, 75 μM) to the reaction mixture and incubated for an additional 15 minutes at room temperature. Mix 5 μl of ADP-Glo™ Reagent and 2.5 μl of the reaction mixture and incubate for 40 minutes at room temperature. Add 10 μl ADP-Glo™ Detection Reagent and incubate for 40 minutes at room temperature. Read luminescence using EnVision microplate reader with ultra-luminescence module (Perkin Elmer Inc). Concentration-response curve-fitting and IC50 determination was performed using Genedata Screener Software (Standard 15.0.1, Genedata Inc) with a four-parameter logistic regression fit model.
Table A provides data for compounds exemplified in the present application and priority document thereof, as representative compounds of the present invention, as follows: chemical name (as named by either ACD software or ChemDraw (Professional 15.0)) and biological data (IC50 in μM). Ex. # refers to Example No.
For orientation: In ADP-Glo the light output rises with the ADP produced.
Regarding `CC1(C)CC(=O)N(c2cccc(NC(=O)c3ncc(NC(C)(C)CO)nc3N3CCC4(CC3)CC4)n2)C1` [Example 107, 3-(6-azaspiro[2.5]oct-6-yl)-N-(6-(4,4-dimethyl-2-oxo-1-pyrrolidinyl)-2-pyridinyl)-5-((1-hydroxy-2-methyl-2-propanyl)amino)-2-pyrazinecarboxamide], the IC50 worked out at 111 nM.
As for `CC(C)(C)NS(=O)(=O)c1cccc(NC(=O)c2ncc(NC(C)(CO)CO)nc2N2CCC3(CC2)CC3)n1` [Example 108, N-(6-(N-(tert-butyl)sulfamoyl)pyridin-2-yl)-5-((1,3-dihydroxy-2-methylpropan-2-yl)amino)-3-(6-azaspiro[2.5]octan-6-yl)pyrazine-2-carboxamide], the IC50 is 87.8 nM.
For the molecule `CC(C)(C)NS(=O)(=O)c1cccc(NC(=O)c2ncc(NC3(CO)CC3)nc2N2CCC3(CC2)CC3)n1` [Example 109, 3-(6-azaspiro[2.5]oct-6-yl)-5-((1-(hydroxymethyl)cyclopropyl)amino)-N-(6-((2-methyl-2-propanyl)sulfamoyl)-2-pyridinyl)-2-pyrazinecarboxamide], the IC50 amounted to 79.3 nM.
As for `CC(C)(C)NS(=O)(=O)c1cccc(NC(=O)c2ncc(C(C)(O)C(F)(F)F)nc2N2CCC3(CC2)CC3)n1` (stereo not drawn) [Example 110, N-(6-(N-(tert-butyl)sulfamoyl)pyridin-2-yl)-3-(6-azaspiro[2.5]octan-6-yl)-5-(1,1,1-trifluoro-2-hydroxypropan-2-yl)pyrazine-2-carboxamide], the IC50 was determined as 260 nM.
As for `CC(C)(CO)Nc1cnc(C(=O)Nc2cc(Cl)cc(N3CCOCC3)n2)c(N2CCC3(CC2)CC3)n1` [Example 113, 3-(6-azaspiro[2.5]oct-6-yl)-N-(4-chloro-6-(4-morpholinyl)-2-pyridinyl)-5-((1-hydroxy-2-methyl-2-propanyl)amino)-2-pyrazinecarboxamide], the half-inhibitory concentration (IC50) turned out to be 112 nM.
Consider `Cc1cc(NC(=O)c2ncc(NC(C)(C)CO)nc2N2CCC3(CC2)CC3)nc(N2CCOCC2)c1` [Example 114, 3-(6-azaspiro[2.5]octan-6-yl)-5-((1-hydroxy-2-methyl-2-propanyl)amino)-N-(4-methyl-6-(4-morpholinyl)-2-pyridinyl)-2-pyrazinecarboxamide], for which the IC50 amounted to 178 nM.
For `CC(CO)(CO)Nc1cnc(C(=O)Nc2cccc(N3CCOCC3)n2)c(N2CCC3(CC2)CC3)n1` [Example 115, 3-(6-azaspiro[2.5]octan-6-yl)-5-((1,3-dihydroxy-2-methyl-2-propanyl)amino)-N-(6-(4-morpholinyl)-2-pyridinyl)-2-pyrazinecarboxamide] the value was 106 nM; for `COc1cc(NC(=O)c2ncc(NC(C)(C)CO)nc2N2CCC3(CC2)CC3)nc(N2CCOCC2)c1` [Example 116, 3-(6-azaspiro[2.5]octan-6-yl)-5-((1-hydroxy-2-methyl-2-propanyl)amino)-N-(4-methoxy-6-(4-morpholinyl)-2-pyridinyl)-2-pyrazinecarboxamide], 1160 nM; for `CC(C)(CO)Nc1cnc(C(=O)Nc2cc(C#N)cc(N3CCOCC3)n2)c(N2CCC3(CC2)CC3)n1` [Example 117, 3-(6-azaspiro[2.5]octan-6-yl)-N-(4-cyano-6-(4-morpholinyl)-2-pyridinyl)-5-((1-hydroxy-2-methyl-2-propanyl)amino)-2-pyrazinecarboxamide], 138 nM.
On to `CC(C)(CO)Nc1cnc(C(=O)Nc2cc(C3CC3)cc(N3CCOCC3)n2)c(N2CCC3(CC2)CC3)n1` [Example 118, 3-(6-azaspiro[2.5]octan-6-yl)-N-(4-cyclopropyl-6-(4-morpholinyl)-2-pyridinyl)-5-((1-hydroxy-2-methyl-2-propanyl)amino)-2-pyrazinecarboxamide], for which the IC50 turned out to be 540 nM.
As for `CC(C)(C)NS(=O)(=O)c1cccc(NC(=O)c2ncc(N3C(=O)OCC3(C)C)nc2N2CCC3(CC2)CC3)n1` [Example 119, 3-(6-azaspiro[2.5]octan-6-yl)-5-(4,4-dimethyl-2-oxo-1,3-oxazolidin-3-yl)-N-(6-((2-methyl-2-propanyl)sulfamoyl)-2-pyridinyl)-2-pyrazinecarboxamide], the IC50 turned out to be 817 nM.
For `CC(C)(CO)Nc1cnc(C(=O)Nc2cccc(N3CCO[C@H](CO)C3)n2)c(N2CCC3(CC2)CC3)n1` [Example 120, 3-(6-azaspiro[2.5]octan-6-yl)-N-(6-((2S)-2-(hydroxymethyl)-4-morpholinyl)-2-pyridinyl)-5-((1-hydroxy-2-methyl-2-propanyl)amino)-2-pyrazinecarboxamide] the value was 176 nM.
For `C[C@@H]1CN(c2cccc(NC(=O)c3ncc(NS(C)(=O)=O)nc3N3CCC4(CC3)CC4)n2)CCO1` [Example 121, 3-(6-azaspiro[2.5]octan-6-yl)-N-(6-((2R)-2-methyl-4-morpholinyl)-2-pyridinyl)-5-((methylsulfonyl)amino)-2-pyrazinecarboxamide] the value was 642 nM.
As to `CC(C)(CO)Nc1ccc(C(=O)Nc2cccc(-c3ncco3)n2)c(N2CCC3(CC2)CC3)n1` [Example 122, 2-(6-azaspiro[2.5]oct-6-yl)-6-((2-hydroxy-1,1-dimethylethyl)amino)-N-(6-(1,3-oxazol-2-yl)-2-pyridinyl)-3-pyridinecarboxamide], the IC50 was found to be 316 nM.
As for `CC(C)(C)NS(=O)(=O)c1cccc(NC(=O)c2ccc(NC(C)(C)CO)nc2N2CCC3(CC2)CC3)n1` [Example 123, 2-(6-azaspiro[2.5]oct-6-yl)-N-(6-(tert-butylsulfamoyl)-2-pyridinyl)-6-((2-hydroxy-1,1-dimethylethyl)amino)-3-pyridinecarboxamide], the IC50 is 64 nM.
For `COC1CCN(c2cccc(NC(=O)c3ccc(NC(C)(C)CO)nc3N3CCC4(CC3)CC4)n2)C1` (stereo not drawn) [Example 124, 6-((1-hydroxy-2-methylpropan-2-yl)amino)-N-(6-(3-methoxypyrrolidin-l-yl)pyridin-2-yl)-2-(6-azaspiro[2.5]octan-6-yl)nicotinamide] the value was 407 nM; for `CC(C)(CO)Nc1ccc(C(=O)Nc2cccc(N3CCCC3)n2)c(N2CCC3(CC2)CC3)n1` [Example 125, 2-(6-azaspiro[2.5]oct-6-yl)-6-((2-hydroxy-1,1-dimethylethyl)amino)-N-(6-(1-pyrrolidinyl)-2-pyridinyl)-3-pyridinecarboxamide], 136 nM; for `CC1CN(c2cccc(NC(=O)c3ccc(NC(C)(C)CO)nc3N3CCC4(CC3)CC4)n2)CCO1` (stereo not drawn) [Example 126, 6-((1-hydroxy-2-methylpropan-2-yl)amino)-N-(6-(2-methylmorpholino)pyridin-2-yl)-2-(6-azaspiro[2.5]octan-6-yl)nicotinamide], 60.2 nM.
As for `CC(C)(CO)Nc1ccc(C(=O)Nc2cccc(N3CCOCC3)n2)c(N2CCC3(CC2)CC3)n1` [Example 127, 2-(6-azaspiro[2.5]oct-6-yl)-6-((2-hydroxy-1,1-dimethylethyl)amino)-N-(6-(4-morpholinyl)-2-pyridinyl)-3-pyridinecarboxamide], the half-inhibitory concentration (IC50) stood at 52.5 nM.
As for `CC1(C)CCN(c2cccc(NC(=O)c3ccc(NC(C)(C)CO)nc3N3CCC4(CC3)CC4)n2)C1` [Example 128, 2-(6-azaspiro[2.5]oct-6-yl)-N-(6-(3,3-dimethyl-l-pyrrolidinyl)-2-pyridinyl)-6-((2-hydroxy-1,1-dimethylethyl)amino)-3-pyridinecarboxamide], the IC50 is 95.3 nM.
For the molecule `CC(C)(CO)Nc1ccc(C(=O)Nc2cccc(N3CCC(F)(F)C3)n2)c(N2CCC3(CC2)CC3)n1` [Example 129, 2-(6-azaspiro[2.5]oct-6-yl)-N-(6-(3,3-difluoro-l-pyrrolidinyl)-2-pyridinyl)-6-((2-hydroxy-1,1-dimethylethyl)amino)-3-pyridinecarboxamide], the IC50 came to 83.4 nM.
For `CC(C)(CO)Nc1ccc(C(=O)Nc2cccc(N3CCOC(C)(C)C3)n2)c(N2CCC3(CC2)CC3)n1` [Example 130, 2-(6-azaspiro[2.5]oct-6-yl)-N-(6-(2,2-dimethyl-4-morpholinyl)-2-pyridinyl)-6-((2-hydroxy-1,1-dimethylethyl)amino)-3-pyridinecarboxamide] the value was 172 nM; for `CC(C)(CO)Nc1ccc(C(=O)Nc2cccc(N3CCC(O)C3)n2)c(N2CCC3(CC2)CC3)n1` (stereo not drawn) [Example 131, 6-((1-hydroxy-2-methylpropan-2-yl)amino)-N-(6-(3-hydroxypyrrolidin-1-yl)pyridin-2-yl)-2-(6-azaspiro[2.5]octan-6-yl)nicotinamide], 294 nM.
`C[C@H]1CN(c2cccc(NC(=O)c3ccc(NC(C)(C)CO)nc3N3CCC4(CC3)CC4)n2)CCO1` [Example 132, 2-(6-azaspiro[2.5]oct-6-yl)-6-((2-hydroxy-1,1-dimethylethyl)amino)-N-(6-((2S)-2-methyl-4-morpholinyl)-2-pyridinyl)-3-pyridinecarboxamide]: the IC50 came to 82.1 nM.
